Data set [1] deals with BC3 cells. The experiment in a line: Trypan-blue exclusion viability, PEL cell line. It counts as cell-based. Conditions: Homo sapiens, BC-3; selected PEL cell line (BC3), 48 hours; read-out: LC50 by Trypan-blue exclusion. How it is done:
(§1) Cell viability assays were performed by plating log-phase cells in RPMI complete media with 20% FBS at 1*10^5 cells/mL, with concentrations of 6-ETI or phospho-6-ETI ranging from 0.1 nM to 100 μM. ATP content at 24, 48 and 72 hours post-treatment was measured by the CellTiter-Glo kit (Promega, Madison, Wis.), or by Trypan blue assay as indicated. The LC50 for 6-ETI in each cell line was determined using online EC50 software at changbioscience.com or using GraphPad Prism to determine the LC50 for 6-ETI, phospho-6-ETI and nucleoside analogs in MM cell lines and primary MM patient samples.

Data set [2] has as its system BC3 cells. The experiment in a line: Annexin V/7-AAD cell death flow cytometry. It counts as cell-based, human. Conditions: 500 nM or 5 μM, 48 hours; versus IBL1. How it is done:
BC3 and IBL1 cells in the exponential phase were seeded at a cell density of 0.2 million cells/ml. Cells were treated with 0.1% DMSO or with 6-ETI at a final concentration of 500 nM or 5 μM for 24, 48 or 72 hrs. Post-treatment, cells were harvested and stained with 2.54 of Alexa Fluor 647 Annexin V conjugate (Life technologies) and 2.5 fit of 7-AAD (BD biosciences) and incubated for 15 minutes in the dark at room temperature. Subsequently, 2004 of Annexin V binding buffer (BD Biosciences) was added to the cell suspension and cells analyzed by flow cytometry using BD biosciences LSRII machine.
On the technique in general: A flow cytometer gives signals particle by particle.

The test system of data set [3] is BC3 cells. The experiment in a line: Propidium iodide cell cycle flow cytometry. It counts as cell-based, human. The conditions noted are these: BC3, 1 μM, 24 hours. How it is done: BC3 cells in the exponential phase were seeded at a cell density of 2*10^5 cells/mL. Cells were treated with 0.1% DMSO or with 6-ETI at a final concentration of 1 μM 6-ETI for 24 hrs for cell cycle. Post-treatment, cells were harvested, fixed and stained in Propidium Iodide (Roche). Subsequently, stained cells were analyzed by flow cytometry using BD FACS Aria II SORP cell sorter, and phases of the cell cycle modeled using FlowJo v7.6.5.

Data set [4] relates to DNA synthesis in BC3 cells. The experiment in a line: Click-iT EdU DNA synthesis assay, BC3. Conditions: BC3, 1 μM, 24 hours. It counts as cell-based, human. How it is done: BC3 and U266 cells were seeded at a density of 0.5 million cells/ml and treated with DMSO only, 1 μM or 1.0 μM 6-ETI for BC3 cells and 0.5 μM 6-ETI for U266 cells for 24 hrs. At 24 hrs post 6-ETI treatment, 0.5 million cells of each of the treated conditions were labeled with 10 μM of EdU for 2 hours then fixed for 30 min using 2% paraformaldehyde supplemented with 0.3M sucrose. Cells were then washed in PBS and perineabilized with 0.2% saponin, PBS with 1% BSA and 0.3M sucrose for 20 min at room temperature. During this incubation time, a click-iT cocktail mix containing, click iT reaction buffer, CuSO4, alexafluor488 and click iT reaction buffer additive was prepared according to the manufacturer's instructions. Cells were washed in PBS after permeabilization and the click-iT cocktail mix was added for 30 min at room temperature in the absence of light. To visualize DNA, cells were counterstained with Hoechst (1:1000) for another 30 min then washed and resuspended in PBS with 1% BSA. 20 μl of the resuspended cells were combined with 20 μl of mounting media Fluoromount-G (Southern biotech) and cells were mounted on Ibidi μ-slides. Cells were imaged using DeltaVision image restoration microscope (Rockefeller center).

The subject of data set [5] is KSHV lytic reactivation in JSC1 PEL cell line. The experiment in a line: Lytic reactivation flow assay in rKSHV.219 infected JSC1 cells. It counts as cell-based. Conditions: in a small proportion of cells; 1 or 10 μM, 24 or 48 hours. Here is the method: Lytic reactivation low was performed as previously described (Soulier J. et al., Blood 1995;86(4):1276-80). JSC1 B3.1 cells in the exponential phase were seeded at 2*10^5 cells/mL and treated with 1 or 10 μM 6-ETI for 24 or 48 hours, or 20 ng/mL lytic inducer TPA for 48 hours.

The subject of data set [6] is IBL-1 subcutaneous xenograft. The experiment in a line: Xenograft model of EBV-associated immunoblastic lymphoma. Conditions: 300 mg/kg/day i.p., 5 treatments over 10 days. It counts as in vivo, mouse. How it is done: The in vivo xenograft model of EBV-associated immunoblastic lymphoma was generated by injecting NOD-SCID mice (obtained from Jackson Laboratory Stock# 001303) subcutaneously on the flank region with 5*10^6IBL-1 cells in 200 μl of 50:50 matrigel/cell suspension per mouse. After forming palpable or measurable tumors, mice were randomly grouped (n=3 per group) and treated intraperitoneally with vehicle PBS-Tween80 or 6-ETI (300mg/kg/day) for 5 treatments over the course of 10 days where drug was administered three times a week. Tumor size was assessed by caliper measurement three times a week, and tumor volume (V) was calculated using the formula V=(length×Width^2)/2 where L=length or largest tumor diameter and W=width or the perpendicular tumor diameter. Relative tumor volume was determined according to the formula Vd/V0 where Vd is tumor volume on the day of measurement, and V0 represents the tumor volume on day 0 when the treatment started. At the end of the treatment course, two of the control mice were treated with vehicle PBS-Tween80 or 6-ETI (300 mg/kg) for 24 hr after which the tumors were harvested, fixed in 10% formalin and embedded in paraffin for histological examination and immunohistochemistry.

The subject of data set [7] is MM cell lines JJN3, MM1S, U266 and CAG. The experiment in a line: CellTiter-Glo viability assay, MM cell lines. It counts as cell-based. How it is done:
as §1
Background: Cellular ATP, detected with luciferase, serves as a proxy for viable cell number.

In data set [8] the test system is CAG-luc multiple myeloma xenograft. The experiment in a line: Disseminated multiple myeloma xenograft model. It counts as in vivo, mouse. Here is the method: For the disseminated multiple myeloma xenograft model, CAG cells were kindly provided by Dr. Malcolm Moore lab at MSKCC. 1×10^7 of CAG cells stably expressing the HSV-TK-eGFP-luciferase fusion protein were injected intravenously into NOD/SCID (NOD/LTSZPrko/J, the Jackson Laboratory Stock# 001303). Eight days after tumor induction, mice were randomized into control and treated cohorts and treated intraperitoneally with either PBS 0.05% tween 80 (vehicle) or 200 mg/kg of 6-ETI daily for 9 days. Tumor mass or bioluminescence (photons/s/cm^2/steradian) was evaluated by imaging the mice using IVIS Imaging system. Statistical analysis was done using a two-tailed, unpaired Student's t-test using GraphPad prism.

The subject of data set [9] is colon (RKO, HCT116, DID1) and pancreatic (PA-TU-8988T) cancer cell lines. The experiment in a line: Viability of adenocarcinoma cell lines. It counts as cell-based. How it is done: as §1
For data set [10] the following is noted: 200 mg/kg for 9 days; cited from earlier work.

In the case of `CCSc1ncnc2c1ncn2[C@@H]1O[C@H](CO)C(O)[C@@H]1O` (stereo partly drawn) [Compound 6-ETI, 6-ethylthioinosine], in the data set on BC3 cells [1], the CC50 was 74 nM. The “proportion of dead cells (Annexin V/7-AAD)” value in the data set on BC3 cells [2] was “higher proportion of dead cells”. In addition, in the data set on BC3 cells [3], the cell cycle distribution entry is reported as “reproducible increase in the percentage of cells in S-phase”. In addition, in data set [4], the “DNA synthesis (EdU incorporation)” value is given as “complete inhibition of DNA synthesis”. Moreover, the lytic reactivation result in [5] is on record as “induction of lytic reactivation”. Besides, the tumor growth result in data set [6] is given as “reduced the rate of tumor growth”. Also, the LC50 result in data set [7] is “high nM range”; in data set [9] it was “nanomolar range”. In data set [8] (200 mg/kg/day i.p. for 9 days), the “tumor burden (bioluminescent signal)” value is “significant reduction in tumor burden”. The weight loss entry in data set [8] (200 mg/kg/day i.p. for 9 days) is recorded as “without any weight loss”. In addition, the overall survival entry in [8] (200 mg/kg/day, P<0.005) was “significantly prolonged”. Also, the reported toxicities result in [10] is “no reported toxicities”.

The values are drawn from US20190225643A1, “NOVEL NUCLEOSIDE ANALOGS AND USE THEREOF IN THERAPEUTIC TREATMENT” (CORNELL UNIVERSITY, priority 2016, published 2019).
